The values below come from US20120035187A1 (priority 2009, published 2012).

Like-named read-outs stand apart in the source and are kept apart here. Marks after values point to notes of the source that are not given here.

The test system of one assay is brain ischemia rat. Briefly: Brain ischemia (cerebral infarction model) rat: size/volume of cerebral infarction region (TTC). It is filed as in vivo. To be noted: for Volume of cerebral infarction region (mm^3): embolus rat, caudal vein; for Size of cerebral infarcttion region (%): brain ischemia rats, 100 p g/kg body weight via caudal vein twice, relative to control group 1 = 100%.

Assay [1] concerns the target T1, acetylcholine esterase (AchE) (Rattus norvegicus, UniProt P37136).
T1 sequence (P37136 32-614): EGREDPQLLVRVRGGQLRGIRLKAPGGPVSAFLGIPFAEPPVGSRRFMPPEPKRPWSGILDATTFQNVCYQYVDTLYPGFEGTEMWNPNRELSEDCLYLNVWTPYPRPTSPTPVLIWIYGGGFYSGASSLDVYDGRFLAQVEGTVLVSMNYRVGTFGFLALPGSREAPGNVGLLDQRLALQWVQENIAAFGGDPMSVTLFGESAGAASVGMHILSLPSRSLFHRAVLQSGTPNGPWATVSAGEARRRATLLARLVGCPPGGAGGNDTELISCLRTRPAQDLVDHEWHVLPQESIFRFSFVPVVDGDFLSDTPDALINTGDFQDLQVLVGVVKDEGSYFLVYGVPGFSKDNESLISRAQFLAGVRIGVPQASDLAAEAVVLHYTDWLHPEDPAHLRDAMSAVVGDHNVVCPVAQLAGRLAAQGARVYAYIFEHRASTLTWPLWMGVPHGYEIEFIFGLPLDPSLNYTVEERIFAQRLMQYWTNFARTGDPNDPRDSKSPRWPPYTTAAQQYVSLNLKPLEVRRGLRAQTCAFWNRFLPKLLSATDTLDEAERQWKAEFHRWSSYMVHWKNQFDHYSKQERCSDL
Briefly: biochemical. It is filed as biochemical.

A short description of assay [2]: Hydroxyl radical-scavenging activity, ESR (Fenton reaction). The protocol:
Stock solutions, prepared by dissolving NK-4, NK-19, NK-53, NK-100, and NK-557 in DMSO, were respectively diluted with refined water to give concentrations of 3-folds higher than those in Table 14 and used as test sample solutions. As a positive control, a neuroprotectant, “edaravone”, commercialized as “RADICUT®” containing 3-methyl-1-phenyl-2-pyrazoline-5-one as an effective ingredient by Mitsubishi Tanabe Pharma Corporation, Osaka, Japan, was diluted with refined water to give a concentration of 3-folds higher than that in Table 14 for use. To 50 μl of refined water, 50 μl of 89 mM DMPO ([…]) commercialized by Dojindo Laboratories, Kumamoto, Japan, 50 μl of the test sample solution, and 50 μl of an aqueous solution containing 1 mM hydrogen peroxide, 1 mM FeSO4, and 1 mM DTPA, commercialized by Wako Pure Chemical Industries, Osaka, Japan, were added, mixed for 10 seconds using a vortex mixer and allowed to react in an incubator controlled at 37° for 40 seconds. After 30 seconds from completion of the reaction, the resulting reaction mixture was subjected to ESR measurement. A control solution was prepared by the same method as above except for using 50 μl of a diluted edaravone solution as a substitute for the test sample solution, and subjected to ESR measurement.
(§1) The reaction mixture for measuring hydroxyl or peroxyl radicals was poured into a flat quartz cell for ESR, set to “FREE RADICAL MONITOR JES-FR30”, an ESR apparatus commercialized by JOEL Ltd., Tokyo, Japan, and ESR was measured according to manual manner. The residual ratio of peroxyl radical (%) was determined as a relative value by defining the ESR value, obtained by using 0.1 M phosphate buffer as a substitute of the test sample solution, as 100. The results are in Tables 14 and 15. […] Therefore, the IC50 of edaravone was determined by another test using its higher concentration, and the result is also shown in Table 14. The conditions of the ESR measurement were set as follows: […]

A short description of assay [3]: Peroxyl radical-scavenging activity, ESR (AAPH). As to the method: Stock solutions, prepared by dissolving NK-4, NK-19, NK-53, NK-100, and NK-557 in DMSO, were respectively diluted with 0.1 M phosphate buffer to give concentrations of […] higher than those in Table 15 and used as test sample solutions. To 50 μl of 0.1 M phosphate buffer (pH 7.4), 50 μl of 180 mM DMPO ([…]) commercialized by Dojindo Laboratories, Kumamoto, Japan, 50 μl of any one of the test sample solutions, and 50 μl of 100 mM AAPH, commercialized by Wako Pure Chemical Industries, Osaka, Japan, were added, mixed for 10 seconds using a vortex mixer and allowed to react in an incubator controlled at 37° for two minutes and 50 seconds. After 30 seconds from completion of the reaction, the resulting reaction mixture was subjected to ESR measurement.
as §1

The mark [4] stands for this setting: concentration of compound 2.5 μg/ml.
[5] abbreviates: concentration of compound 3.13 μg/ml.
The mark [6] stands for this setting: concentration of compound 6.25 μg/ml.
Where [7] appears, read: concentration of compound 12.5 μg/ml.
Where [8] appears, read: compound concentration 25 μg/ml.
Setting [9] is: compound concentration 50 μg/ml.
Where [10] appears, read: compound concentration 0.78 μg/ml, read-out: Residual ratio of AchE activity (%).
Setting [11] is: compound concentration 1.56 μg/ml, read-out: Residual ratio of AchE activity (%).
The mark [12] stands for this setting: compound concentration 3.13 μg/ml, read-out: Residual ratio of AchE activity (%).
The mark [13] stands for this setting: compound concentration 6.25 μg/ml, read-out: Residual ratio of AchE activity (%).
Setting [14] is: compound concentration 12.5 μg/ml, read-out: Residual ratio of AchE activity (%).
Where [15] appears, read: compound concentration 25 μg/ml, read-out: Residual ratio of AchE activity (%).

`CCCCN1C=C/C(=C/C=C(/C=C/c2cc[n+](CCCC)c3ccccc23)c2cc[n+](CCCC)c3ccccc23)c2ccccc21` [NK-26]: the “increment of the volume of cerebral infarction region (in words)” value with brain ischemia rat (Experiment 13, cerebral-infarction-model rat, administered through caudal vein) is “significantly suppressed”. The entries for the “Volume of cerebral infarction region (mm^3)” value in the assay on brain ischemia rat (dose 1 μg per kg body weight), in the assay with brain ischemia rat (dose 10 μg per kg body weight) and in the assay with brain ischemia rat (dose 100 μg per kg body weight) were 194 ± 22 mm^3, 121 ± 22* mm^3 and 169 ± 23 mm^3, respectively. Moreover, the remaining activity at 0.78 µg/mL in assay [1] (concentration of compound 0.78 μg/ml, read-out: Residual ratio of AchE activity (%)) turned out to be 94 ± 11%. For the same compound, the remaining activity at 1.56 µg/mL in assay [1] (concentration of compound 1.56 μg/ml, read-out: Residual ratio of AchE activity (%)) came to 84 ± 9%. For the same compound, the remaining activity at 3.13 µg/mL in assay [1] (concentration of compound 3.13 μg/ml, read-out: Residual ratio of AchE activity (%)) worked out at 88 ± 8%. Besides, the remaining activity at 6.25 µg/mL in assay [1] (concentration of compound 6.25 μg/ml, read-out: Residual ratio of AchE activity (%)) amounted to 88 ± 7%. The remaining activity at 12.5 µg/mL in assay [1] (concentration of compound 12.5 μg/ml, read-out: Residual ratio of AchE activity (%)) turned out to be 69 ± 5%. Also, the remaining activity at 25 µg/mL in assay [1] (concentration of compound 25 μg/ml, read-out: Residual ratio of AchE activity (%)) came to 48 ± 4%. The remaining activity at 50 µg/mL in assay [1] (concentration of compound 50 μg/ml, read-out: Residual ratio of AchE activity (%)) is 36 ± 9%. Moreover, the IC50 in assay [1] (concentration that suppresses AchE activity by 50%, calculated from residual ratios, read-out: IC50 (μg/ml) (converted)) is 37.6 µM.
Take `CCN1/C(=C/C=C(/C=C/c2sc3ccccc3[n+]2CC)c2sc3ccccc3[n+]2CC)Sc2ccccc21.[I-].[I-]` [NK-100]: the “IC50 (μg/ml) of hydroxyl radical-scavenging activity” value in assay [2] stood at 6.6 µg/mL. The “Residual ratio of hydroxyl radical (%)” value was 8 ± 0 % in assay [2] (setting [4]), 68 ± 1 % in assay [2] (setting [5]), 51 ± 1 % in assay [2] (setting [6]) and 32 ± 1 % in assay [2] (setting [7]). In the assay with brain ischemia rat, the “Size of cerebral infarcttion region (%)” value is listed as 74.5 ± 11.4%. For the same compound, the “IC50 (μg/ml) of peroxyl radical-scavenging activity” value in assay [3] is recorded as 50< μg/ml. The “Residual ratio of peroxyl radical (%)” value in assay [3] (compound concentration 5 μg/ml) came to 86 ± 15%; in assay [3] (setting [8]), 86 ± 15%; in assay [3] (setting [9]), 76 ± 7 %. Also, in assay [1] (AchE solution from PC12-HS cells, read-out: IC50 (concentration of a compound inhibiting the AchE activity of 50%) (converted)), the IC50 was 14.6 µM. In addition, the remaining activity at 0.78 µg/mL in assay [1] (setting [10]) was determined as 77 ± 18%. The remaining activity at 1.56 µg/mL in assay [1] (setting [11]) was 68 ± 16%. In addition, the remaining activity at 3.13 µg/mL in assay [1] (setting [12]) stood at 67 ± 3%. For the same compound, the remaining activity at 6.25 µg/mL in assay [1] (setting [13]) stood at 60 ± 3%. Moreover, the remaining activity at 12.5 µg/mL in assay [1] (setting [14]) came to 49 ± 5%. For the same compound, in assay [1] (setting [15]), the remaining activity at 25 µg/mL was determined as 43 ± 3%.
Consider `CCCN1C=CC(=CC=C(C=Cc2cc[n+](CCC)c3ccccc23)c2cc[n+](CCC)c3ccccc23)c2ccccc21.[I-].[I-]` [NK-234], for which the “action of inhibiting AchE activity (in words)” value in assay [1] (Experiment 14, comparison of NK-4 analogues and NK-150) is given as “strongly inhibited AchE activity”. Besides, the “Residual ratio of AchE activity (%)” value in assay [1] (concentration of compound 0.78 μg/ml) was 77 ± 21%; in assay [1] (concentration of compound 1.56 μg/ml) it was 77 ± 13%; in assay [1] (setting [5]) it was 47 ± 11 %; in assay [1] (setting [6]), 45 ± 9 %; in assay [1] (setting [7]) it was 30 ± 12 %; in assay [1] (concentration of compound 25 μg/ml), 26 ± 6 %. Further, the “Residual ratio of AchE activity (%)” value in assay [1] (concentration of compound 50 μg/ml) was determined as 12 ± 6 %. Moreover, the “IC50” value in assay [1] (concentration that suppresses AchE activity by 50%, calculated from residual ratios) is 3.0 mg/L.
On to `CC[n+]1ccccc1/C=C/c1ccc(N(C)C)cc1` [NK-557], for which the “IC50 (μg/ml) of hydroxyl radical-scavenging activity” value in assay [2] was 6.2 µg/mL. The “Residual ratio of hydroxyl radical (%)” value in assay [2] (setting [4]) was found to be 15 ± 6 %; in assay [2] (setting [5]), 71 ± 1 %; in assay [2] (setting [6]), 50 ± 1 %; in assay [2] (setting [7]), 30 ± 1 %. For the same compound, in the assay with brain ischemia rat, the “Size of cerebral infarcttion region (%)” value amounted to 61.1 ± 14.2%. Further, the “IC50 (μg/ml) of peroxyl radical-scavenging activity” value in assay [3] is 50< μg/ml. In addition, the “Residual ratio of peroxyl radical (%)” value in assay [3] (compound concentration 5 μg/ml) stood at 90 ± 9%; in assay [3] (setting [8]) it was 58 ± 5 %; in assay [3] (setting [9]) it was 66 ± 8 %. Further, the remaining activity at 0.78 µg/mL in assay [1] (setting [10]) turned out to be 110 ± 1%. In assay [1] (setting [11]), the remaining activity at 1.56 µg/mL was determined as 107 ± 2%. For the same compound, the remaining activity at 3.13 µg/mL in assay [1] (setting [12]) came out at 97 ± 5%. Moreover, in assay [1] (setting [13]), the remaining activity at 6.25 µg/mL was found to be 97 ± 3%. Further, in assay [1] (setting [14]), the remaining activity at 12.5 µg/mL turned out to be 97 ± 4%. In addition, the remaining activity at 25 µg/mL in assay [1] (setting [15]) turned out to be 88 ± 9%.
